Results on 17 compounds are retold here after paper doi:10.1101/2020.07.01.182642v1 (biorxiv, 2020).

The target in assay [1] is CLK1 (full-length) (Homo sapiens, UniProt P49759). As to the kind of experiment: cell-based.
In assay [2] the target is CLK1 (full-length) (Homo sapiens, UniProt P49759, V324A). As to the kind of experiment: cell-based.
Assay [3] deals with CLK1 (H148-I484) (Homo sapiens, UniProt P49759, V324A). The conditions noted are these: binder.
The target in assay [4] is T1, CLK3 (R134-T484) (Homo sapiens, UniProt P49761, A319V). The conditions noted are these: binder.
T1 sequence (P49761 134-484 A319V): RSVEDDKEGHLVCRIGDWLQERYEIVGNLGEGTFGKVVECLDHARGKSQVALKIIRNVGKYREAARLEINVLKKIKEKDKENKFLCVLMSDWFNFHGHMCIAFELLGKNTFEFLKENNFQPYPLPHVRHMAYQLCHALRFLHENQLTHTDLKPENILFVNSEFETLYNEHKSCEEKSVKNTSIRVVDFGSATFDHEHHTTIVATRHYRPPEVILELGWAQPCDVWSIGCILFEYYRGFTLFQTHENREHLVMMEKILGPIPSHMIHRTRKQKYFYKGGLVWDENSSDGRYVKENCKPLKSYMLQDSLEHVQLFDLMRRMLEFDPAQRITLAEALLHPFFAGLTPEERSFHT
For assay [5], the target named is T2, CLK1 (H148-I484) (Homo sapiens, UniProt P49759). The conditions noted are these: binder.
T2 sequence (P49759 148-484): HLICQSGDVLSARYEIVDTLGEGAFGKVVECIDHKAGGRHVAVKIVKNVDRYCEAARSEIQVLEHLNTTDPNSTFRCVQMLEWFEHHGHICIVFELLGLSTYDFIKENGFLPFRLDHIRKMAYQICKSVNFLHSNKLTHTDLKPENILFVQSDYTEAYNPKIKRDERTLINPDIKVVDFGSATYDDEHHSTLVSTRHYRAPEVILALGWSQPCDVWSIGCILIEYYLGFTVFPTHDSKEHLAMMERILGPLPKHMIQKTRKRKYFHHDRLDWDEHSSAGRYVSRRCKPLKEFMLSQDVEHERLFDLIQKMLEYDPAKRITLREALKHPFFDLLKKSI
For assay [6], the target named is T3, CLK3 (R134-T484) (Homo sapiens, UniProt P49761). The conditions noted are these: binder.
T3 sequence (P49761 134-484): as the sequence (P49761 134-484 A319V) above, with V186A counted along it
Assay [7] has as its target T2, CLK1 (H148-I484). The conditions noted are these: binder. The source holds these as a separate data set.
Assay [8] has as its target T3, CLK3 (R134-T484). Particulars: binder. This is another data set of the same source.
The next assay concerns the target CLK3 (Homo sapiens, UniProt P49761). Particulars: binder.
In a further assay the target is CLK1 (Homo sapiens, UniProt P49759). The conditions noted are these: binder.
CLK1, sequence (P49759 whole entry): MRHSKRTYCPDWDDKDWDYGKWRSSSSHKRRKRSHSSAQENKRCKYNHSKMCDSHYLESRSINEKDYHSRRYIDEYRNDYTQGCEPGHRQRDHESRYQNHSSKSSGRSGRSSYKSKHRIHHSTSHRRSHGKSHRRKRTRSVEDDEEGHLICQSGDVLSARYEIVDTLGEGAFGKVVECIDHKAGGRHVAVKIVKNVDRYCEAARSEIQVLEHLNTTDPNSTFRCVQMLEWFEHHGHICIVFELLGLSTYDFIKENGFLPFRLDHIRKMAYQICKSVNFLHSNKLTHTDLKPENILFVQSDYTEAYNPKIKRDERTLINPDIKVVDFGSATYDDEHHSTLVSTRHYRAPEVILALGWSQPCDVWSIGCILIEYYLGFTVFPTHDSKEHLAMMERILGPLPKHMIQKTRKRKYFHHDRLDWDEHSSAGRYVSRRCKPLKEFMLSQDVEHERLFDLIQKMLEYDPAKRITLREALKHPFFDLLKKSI
In assay [9] the target is T1, CLK3 (R134-T484). The assay is described as follows: Omnia kinase assay. In kind it is biochemical.

CLK1 (H148-I484) (Homo sapiens, UniProt P49759, V324A), sequence (P49759 148-484 V324A): as the sequence (P49759 148-484) above, with V177A counted along it
CLK1 (full-length) (Homo sapiens, UniProt P49759, V324A), sequence (P49759 whole entry V324A): as the sequence (P49759 whole entry) above, with V324A counted along it
CLK1 (full-length) (Homo sapiens, UniProt P49759), sequence (P49759 whole entry): as the sequence (P49759 whole entry) above
CLK3, sequence (P49761 whole entry): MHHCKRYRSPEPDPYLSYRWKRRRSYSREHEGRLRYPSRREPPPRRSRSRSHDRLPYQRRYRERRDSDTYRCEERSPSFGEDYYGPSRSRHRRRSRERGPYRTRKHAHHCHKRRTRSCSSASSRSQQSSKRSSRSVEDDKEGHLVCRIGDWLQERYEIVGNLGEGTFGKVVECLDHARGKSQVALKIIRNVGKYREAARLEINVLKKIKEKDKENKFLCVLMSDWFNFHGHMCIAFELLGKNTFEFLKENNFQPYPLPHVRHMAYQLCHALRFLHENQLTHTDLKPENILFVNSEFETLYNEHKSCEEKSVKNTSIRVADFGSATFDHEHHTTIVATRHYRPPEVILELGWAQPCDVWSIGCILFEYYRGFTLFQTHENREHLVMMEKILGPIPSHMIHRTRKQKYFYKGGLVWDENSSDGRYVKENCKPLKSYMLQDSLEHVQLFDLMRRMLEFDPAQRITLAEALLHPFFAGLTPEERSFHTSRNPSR

`O=c1c2c(ccc3nc(-c4cccnc4)sc32)ncn1C1CC1` [compound 12, FC162]: the figures for the Ki on CLK1 (full-length) [1] and at CLK1 (full-length) [2] were 1860 ± 1200 nM and 5450 ± 790 nM, respectively.

In the case of `CC(=O)c1cccc(-c2cnc3ccc(NC(CO)C(C)C)nn23)c1` (stereo not shown) [compound 9], the “ΔTm V324A CLK1” value at CLK1 (H148-I484) [3] came out at 3.9 °C. The “ΔTm A319V CLK3” value on CLK3 (R134-T484) [4] came out at 8.6 °C. The “ΔTm wild type CLK1” value at CLK1 (H148-I484) [5] is 6.8 °C. In addition, the “ΔTm wild type CLK3” value at CLK3 (R134-T484) [6] was 1.8 °C.

Consider `O=C1NCc2ccc3c(-c4cccc(Cl)c4)c[nH]c3c21` [compound 11, KuWal151], for which the figures for the Ki on CLK1 (full-length) [1] and on CLK1 (full-length) [2] were 228 ± 80 nM and 878 ± 46 nM, respectively.

With `Cn1cc(-c2ccc3occ(-c4cccc(Oc5ccccc5)c4)c3n2)cn1` [compound 14, VN412], the “ΔTm V324A CLK1” value at CLK1 (H148-I484) [3] stood at 7.8 °C. In addition, the “ΔTm A319V CLK3” value at CLK3 (R134-T484) [4] came to 10.1 °C. Also, the “ΔTm wild type CLK1” value on CLK1 (H148-I484) [5] came to 12.3 °C. In addition, the “ΔTm wild type CLK3” value on CLK3 (R134-T484) [6] turned out to be 4.8 °C.

Take `CCOc1ccc2c(-c3ccnc(Nc4cc(OC)cc(C(F)(F)F)c4)n3)cnn2n1` [compound 8, GW807982X]: the Ki (as a rule, a dissociation constant, usually derived from enzyme kinetics or from competition with a known ligand) on CLK1 (full-length) [1] stood at 36 ± 20 nM; at CLK1 (full-length) [2] it was 3930 ± 1100 nM. Further, on CLK1 (H148-I484) [7], the “wild type CLK1” value was determined as 9 °C. The “wild type CLK3” value on CLK3 (R134-T484) [8] amounted to 2.0 °C.

In the case of `CN1CCN(C(=O)C(C)(C)c2ccc(C(=O)Nc3cn4cc(-c5ccncc5)ccc4n3)cc2)CC1` [compound 10, T3-CLK], the Ki on CLK1 (full-length) [1] amounted to 1 ± 0.1 nM; at CLK1 (full-length) [2] it was 2.3 ± 0.1 nM.

Regarding `O=C1NCc2ccc3c(-c4cccc(Cl)c4)c[nH]c3c21` [compound 11], the “ΔTm V324A CLK1” value on CLK1 (H148-I484) [3] turned out to be 5.1 °C. Further, the “ΔTm A319V CLK3” value at CLK3 (R134-T484) [4] turned out to be 4.7 °C. The “ΔTm wild type CLK1” value at CLK1 (H148-I484) [5] is 9.4 °C. For the same compound, the “ΔTm wild type CLK3” value on CLK3 (R134-T484) [6] stood at 1.7 °C.

`CC(=O)c1cccc(-c2cnc3ccc(NC(CO)C(C)C)nn23)c1` (stereo not shown) [compound 9, K00518]: the Ki at CLK1 (full-length) [1] was 943 ± 640 nM; on CLK1 (full-length) [2], 2640 ± 1800 nM.

As to `O=c1c2c(ccc3nc(-c4cccnc4)sc32)ncn1C1CC1` [compound 12], the “ΔTm V324A CLK1” value at CLK1 (H148-I484) [3] stood at 3.0 °C. In addition, at CLK3 (R134-T484) [4], the “ΔTm A319V CLK3” value worked out at 5.5 °C. Besides, the “ΔTm wild type CLK1” value on CLK1 (H148-I484) [5] was 9.5 °C. Moreover, the “ΔTm wild type CLK3” value at CLK3 (R134-T484) [6] stood at 3.6 °C.

Consider `CN1CCC2(CC1)NC(=O)c1c(c3ccc(Cl)c(Cl)c3n1C)C2C#N` (stereo not shown) [compound 16, KH-CARB10], for which the “ΔTm V324A CLK1” value on CLK1 (H148-I484) [3] was 1.8 °C. In addition, on CLK3 (R134-T484) [4], the “ΔTm A319V CLK3” value worked out at 5.0 °C. Moreover, the “ΔTm wild type CLK1” value on CLK1 (H148-I484) [5] was 6.1 °C. The “ΔTm wild type CLK3” value at CLK3 (R134-T484) [6] amounted to 1.1 °C.

With `COC(=N)c1nc2ccc3ncnc(Nc4ccc(OC)cc4F)c3c2s1` [compound 13, ETH1610], the “ΔTm V324A CLK1” value on CLK1 (H148-I484) [3] was 3.8 °C. Also, the “ΔTm A319V CLK3” value on CLK3 (R134-T484) [4] was 9.2 °C. On CLK1 (H148-I484) [5], the “ΔTm wild type CLK1” value came to 10.3 °C. Besides, on CLK3 (R134-T484) [6], the “ΔTm wild type CLK3” value was 3.4 °C.

Consider `Cn1c2c(c3ccc(Cl)c(Cl)c31)C(C#N)C1(CCNCC1)NC2=O` (racemic) [compound 3, KH-CARB13], for which the “ΔTm (°C) 3” value on CLK3 was found to be 2.2 degC; at CLK1, 7.0 degC. In addition, the “ΔTm A319V CLK3” value at CLK3 (R134-T484) [4] came out at 5.8 °C. The “ΔTm wild type CLK1” value on CLK1 (H148-I484) [5] worked out at 7.4 °C. Also, the figures for the Ki at CLK3 (R134-T484) [9] and at CLK1 (full-length) [2] were 850 ± 300 nM and 2810 ± 670 nM, respectively. In addition, the “ΔTm wild type CLK3” value at CLK3 (R134-T484) [6] turned out to be 1.2 °C.

As to `CN1CCN(C(=O)C(C)(C)c2ccc(C(=O)Nc3cn4cc(-c5ccncc5)ccc4n3)cc2)CC1` [compound 10], the “ΔTm V324A CLK1” value on CLK1 (H148-I484) [3] was determined as 13.7 °C. The “ΔTm A319V CLK3” value at CLK3 (R134-T484) [4] came to 17.3 °C. In addition, the “ΔTm wild type CLK1” value on CLK1 (H148-I484) [5] is 18.7 °C. For the same compound, the “ΔTm wild type CLK3” value at CLK3 (R134-T484) [6] was 13.7 °C.

Take `Nc1ncnc2c1c(I)cn2C1OC(CO)C(O)C1O` (stereo not shown) [compound 18, iodotubercidin]: on CLK1 (H148-I484) [3], the “ΔTm V324A CLK1” value worked out at 9.7 °C. The “ΔTm A319V CLK3” value on CLK3 (R134-T484) [4] worked out at 14.1 °C. For the same compound, the “ΔTm wild type CLK1” value on CLK1 (H148-I484) [5] was 13.1 °C. The “ΔTm wild type CLK3” value on CLK3 (R134-T484) [6] amounted to 7.9 °C.

As to `CN[C@@H]1C[C@H]2O[C@@](C)([C@@H]1OC)n1c3ccccc3c3c4c(c5c6ccccc6n2c5c31)C(=O)NC4` [compound 6, staurosporine], the “wild type CLK3” value on CLK3 (R134-T484) [8] was determined as 4.7 °C.

For `CCOC(=O)c1c(/C(C#N)=C\N)c2ccc(Cl)c(Cl)c2n1C` [compound 7, KH-CB19], at CLK1 (H148-I484) [7], the “wild type CLK1” value turned out to be 15.0 °C. Also, on CLK3 (R134-T484) [8], the “wild type CLK3” value amounted to 8.6 °C.

As to `Cn1cc(-c2ccc3occ(-c4cccc(-c5ccncc5)c4)c3n2)cn1` [compound 5, MU1210], the “ΔTm V324A CLK1” value at CLK1 (H148-I484) [3] was 5.94 °C. At CLK3 (R134-T484) [4], the “ΔTm A319V CLK3” value amounted to 8.27 °C. On CLK1 (H148-I484) [5], the “ΔTm wild type CLK1” value stood at 9.3 °C. In addition, the “ΔTm wild type CLK3” value on CLK3 (R134-T484) [6] came out at 1.5 °C.
